Values quoted from earlier work as cited in PubChem BioAssay AID1259409 (Chemical Carcinogenesis Research Information System (CCRIS), 2018).

Test system: rodent chemically induced tumor inhibition, incidence and multiplicity
Assay: CCRIS tumor inhibitor studies

In the case of `O=c1cc(-c2ccccc2)oc2c1ccc1ccccc12`, the “tumour outcome (control, treated, inhibition, significance)” value (Carcinogen: 2-AMINO-1-METHYL-6-PHENYLIMIDAZO[4,5-B]PYRIDINE [105650-23-5], Dose [Inhibitor]: 1,000 PPM IN DIET FOR 4 WK BEGINNING WK PRIOR TO FIRST CARCINOGEN DOSE (STUDY DURATION: 25 WK), Route [Inhibitor]: ORAL, Species: RAT, Strain/Sex: SPRAGUE-DAWLEY/FEMALE, Target Tissue: Type of Lesion: MAMMARY GLAND: FIBROADENOMA OR DUCTAL CARCINOMA, Dose [Carcinogen]: 85 MG/KG BW 2/WK FOR 4 WK (STUDY DURATION: 25 WK), Promoter: NONE) is listed as 63%, 36%, 42%, not significant, the “tumour outcome (control, treated, inhibition, significance)” value (Carcinogen: 6-HYDROXYMETHYLBENZO[A]PYRENE, 21247-98-3, Dose [Inhibitor]: 100 UG IN 0.2 ML ACETONE ONCE 5 MINUTES BEFORE CARCINOGEN TREATMENT (STUDY DURATION: 31 WK), Route [Inhibitor]: DERMAL, Species: MOUSE, Strain/Sex: CD-1/FEMALE, Target Tissue: Type of Lesion: SKIN: PAPILLOMA, Dose [Carcinogen]: 400 NMOL IN 0.2 ML ACETONE ONCE, Promoter: 12-O-TETRADECANOYLPHORBOL-13-ACETATE, 16561-29-8) is listed as 57%, 60%, -5%, not calculated and the “tumour outcome (control, treated, inhibition, significance)” value (Carcinogen: 6-METHYLBENZO[A]PYRENE, 2381-39-7, Dose [Inhibitor]: 100 UG IN 0.2 ML ACETONE ONCE 5 MINUTES BEFORE CARCINOGEN TREATMENT (STUDY DURATION: 31 WK), Route [Inhibitor]: DERMAL, Species: MOUSE, Strain/Sex: CD-1/FEMALE, Target Tissue: Type of Lesion: SKIN: PAPILLOMA, Dose [Carcinogen]: 400 NMOL IN 0.2 ML ACETONE ONCE, Promoter: 12-O-TETRADECANOYLPHORBOL-13-ACETATE, 16561-29-8) is listed as 73%, 40%, 44%, not calculated. The “tumour outcome (control, treated, inhibition, significance)” value (Carcinogen: 7,12-DIMETHYLBENZ[A]ANTHRACENE, 57-97-6, Dose [Inhibitor]: 0, 0.37 NMOL IN 0.2 ML ACETONE APPLIED 5 MIN PRIOR TO CARCINOGEN (STUDY DURATION: 21 WK), Route [Inhibitor]: DERMAL, Species: MOUSE, Strain/Sex: SENCAR/FEMALE, Target Tissue: Type of Lesion: SKIN: PAPILLOMA, Dose [Carcinogen]: 40 NMOL IN 0.2 ML ACETONE ONCE, Promoter: 12-O-TETRADECANOYLPHORBOL-13-ACETATE, 16561-29-8) was 100%, 100%, 0%, the “tumour outcome (control, treated, inhibition, significance)” value (Carcinogen: 7,12-DIMETHYLBENZ[A]ANTHRACENE, 57-97-6, Dose [Inhibitor]: 0, 3.7 NMOL IN 0.2 ML ACETONE APPLIED 5 MIN PRIOR TO CARCINOGEN (STUDY DURATION: 21 WK), Route [Inhibitor]: DERMAL, Species: MOUSE, Strain/Sex: SENCAR/FEMALE, Target Tissue: Type of Lesion: SKIN: PAPILLOMA, Dose [Carcinogen]: 40 NMOL IN 0.2 ML ACETONE ONCE, Promoter: 12-O-TETRADECANOYLPHORBOL-13-ACETATE, 16561-29-8) was 100%, 100%, 0% and the “tumour outcome (control, treated, inhibition, significance)” value (Carcinogen: 7,12-DIMETHYLBENZ[A]ANTHRACENE, 57-97-6, Dose [Inhibitor]: 0, 37 NMOL IN 0.2 ML ACETONE APPLIED 5 MIN PRIOR TO CARCINOGEN (STUDY DURATION: 21 WK), Route [Inhibitor]: DERMAL, Species: MOUSE, Strain/Sex: SENCAR/FEMALE, Target Tissue: Type of Lesion: SKIN: PAPILLOMA, Dose [Carcinogen]: 10 NMOL IN 0.2 ML ACETONE ONCE, Promoter: 12-O-TETRADECANOYLPHORBOL-13-ACETATE, 16561-29-8) was 79%, 60%, 24%, not calculated. The “tumour outcome (control, treated, inhibition, significance)” value (Carcinogen: 7,12-DIMETHYLBENZ[A]ANTHRACENE, 57-97-6, Dose [Inhibitor]: 0, 37 NMOL IN 0.2 ML ACETONE APPLIED 5 MIN PRIOR TO CARCINOGEN (STUDY DURATION: 21 WK), Route [Inhibitor]: DERMAL, Species: MOUSE, Strain/Sex: SENCAR/FEMALE, Target Tissue: Type of Lesion: SKIN: PAPILLOMA, Dose [Carcinogen]: 40 NMOL IN 0.2 ML ACETONE ONCE, Promoter: 12-O-TETRADECANOYLPHORBOL-13-ACETATE, 16561-29-8) was 100%, 87%, 13%, not calculated, the “tumour outcome (control, treated, inhibition, significance)” value (Carcinogen: 7,12-DIMETHYLBENZ[A]ANTHRACENE, 57-97-6, Dose [Inhibitor]: 0, 370 NMOL IN 0.2 ML ACETONE APPLIED 5 MIN PRIOR TO CARCINOGEN (STUDY DURATION: 21 WK), Route [Inhibitor]: DERMAL, Species: MOUSE, Strain/Sex: SENCAR/FEMALE, Target Tissue: Type of Lesion: SKIN: PAPILLOMA, Dose [Carcinogen]: 10 NMOL IN 0.2 ML ACETONE ONCE, Promoter: 12-O-TETRADECANOYLPHORBOL-13-ACETATE, 16561-29-8) was 79%, 46%, 42%, not calculated and the “tumour outcome (control, treated, inhibition, significance)” value (Carcinogen: 7,12-DIMETHYLBENZ[A]ANTHRACENE, 57-97-6, Dose [Inhibitor]: 0, 370 NMOL IN 0.2 ML ACETONE APPLIED 5 MIN PRIOR TO CARCINOGEN (STUDY DURATION: 21 WK), Route [Inhibitor]: DERMAL, Species: MOUSE, Strain/Sex: SENCAR/FEMALE, Target Tissue: Type of Lesion: SKIN: PAPILLOMA, Dose [Carcinogen]: 40 NMOL IN 0.2 ML ACETONE ONCE, Promoter: 12-O-TETRADECANOYLPHORBOL-13-ACETATE, 16561-29-8) was 100%, 97%, 3%, not calculated. For the same molecule, the “tumour outcome (control, treated, inhibition, significance)” value (Carcinogen: 7,12-DIMETHYLBENZ[A]ANTHRACENE, 57-97-6, Dose [Inhibitor]: 25 UG/MOUSE APPLIED 6 HR BEFORE, 5 MIN BEFORE, AND 6 HR AFTER DMBA (STUDY DURATION: 28 WK), Route [Inhibitor]: DERMAL, Species: MOUSE, Strain/Sex: CD-1/FEMALE, Target Tissue: Type of Lesion: SKIN: PAPILLOMA, Dose [Carcinogen]: 2.56 UG APPLIED ONCE 5 MIN AFTER INHIBITOR, Promoter: 12-O-TETRADECANOYLPHORBOL-13-ACETATE, 16561-29-8) was 82%, 22%, 73%, not calculated, the “tumour outcome (control, treated, inhibition, significance)” value (Carcinogen: 7,12-DIMETHYLBENZ[A]ANTHRACENE, 57-97-6, Dose [Inhibitor]: 25 UG/MOUSE APPLIED ONCE 5 MIN BEFORE DMBA (STUDY DURATION: 28 WK), Route [Inhibitor]: DERMAL, Species: MOUSE, Strain/Sex: CD-1/FEMALE, Target Tissue: Type of Lesion: SKIN: PAPILLOMA, Dose [Carcinogen]: 2.56 UG APPLIED ONCE 5 MIN AFTER INHIBITOR, Promoter: 12-O-TETRADECANOYLPHORBOL-13-ACETATE, 16561-29-8) was 82%, 48%, 41%, not calculated and the “tumour outcome (control, treated, inhibition, significance)” value (Carcinogen: 7,12-DIMETHYLBENZ[A]ANTHRACENE, 57-97-6, Dose [Inhibitor]: 100 UG IN 0.2 ML ACETONE ONCE 5 MIN BEFORE CARCINOGEN TREATMENT (STUDY DURATION: 31 WK), Route [Inhibitor]: DERMAL, Species: MOUSE, Strain/Sex: CD-1/FEMALE, Target Tissue: Type of Lesion: SKIN: PAPILLOMA, Dose [Carcinogen]: 10 NMOL IN 0.2 ML ACETONE ONCE, Promoter: 12-O-TETRADECANOYLPHORBOL-13-ACETATE, 16561-29-8) was 90%, 38%, 58%, not calculated.
